Reference: the NIST ThermoML archive (doi:10.1016/j.fluid.2018.11.011)
Numbers after ± are expanded uncertainties.

test: activity coefficient (dimensionless); of the first substance listed, at infinite dilution; xn = mol fraction of the nth substance listed; conditions: 338 K; 101.33 kPa; Liquid; Chromatography; x1 = 0

Row | SMILES | activity coefficient
1 | C=CCCC [1-pentene] + CCCCCCCCCC[N+](C)(C)CCCCCCCCCC.[O-][Cl+3]([O-])([O-])[O-] | 1.37 ± 0.14
2 | C/C=C(\C)CC [(E)-3-methyl-2-pentene] + CCCCCCCCCC[N+](C)(C)CCCCCCCCCC.F[B-](F)(F)F | 1.3 ± 0.13
3 | C/C=C(\C)CC [(E)-3-methyl-2-pentene] + CCCCCCCCCC[N+](C)(C)CCCCCCCCCC.[O-][Cl+3]([O-])([O-])[O-] | 1.49 ± 0.15
4 | C/C=C/C(C)C [(E)-4-methyl-2-pentene] + CCCCCCCCCC[N+](C)(C)CCCCCCCCCC.F[B-](F)(F)F | 1.45 ± 0.15
5 | C/C=C/C(C)C [(E)-4-methyl-2-pentene] + CCCCCCCCCC[N+](C)(C)CCCCCCCCCC.[O-][Cl+3]([O-])([O-])[O-] | 1.72 ± 0.18
6 | CC(C)=O [acetone] + CCCCCCCCCC[N+](C)(C)CCCCCCCCCC.F[B-](F)(F)F | 0.833 ± 0.086
7 | CC(C)=O [acetone] + CCCCCCCCCC[N+](C)(C)CCCCCCCCCC.[O-][Cl+3]([O-])([O-])[O-] | 0.537 ± 0.058
8 | CC#N [acetonitrile] + CCCCCCCCCC[N+](C)(C)CCCCCCCCCC.F[B-](F)(F)F | 1.06 ± 0.11
9 | CC#N [acetonitrile] + CCCCCCCCCC[N+](C)(C)CCCCCCCCCC.[O-][Cl+3]([O-])([O-])[O-] | 0.511 ± 0.056
10 | c1ccccc1 [benzene] + CCCCCCCCCC[N+](C)(C)CCCCCCCCCC.F[B-](F)(F)F | 0.519 ± 0.057
11 | c1ccccc1 [benzene] + CCCCCCCCCC[N+](C)(C)CCCCCCCCCC.[O-][Cl+3]([O-])([O-])[O-] | 0.59 ± 0.063
12 | CCCC [butane] + CCCCCCCCCC[N+](C)(C)CCCCCCCCCC.F[B-](F)(F)F | 1.04 ± 0.1
13 | CCCC [butane] + CCCCCCCCCC[N+](C)(C)CCCCCCCCCC.[O-][Cl+3]([O-])([O-])[O-] | 1.28 ± 0.13
14 | CCC(C)=O [butanone] + CCCCCCCCCC[N+](C)(C)CCCCCCCCCC.F[B-](F)(F)F | 0.903 ± 0.092
15 | CCC(C)=O [butanone] + CCCCCCCCCC[N+](C)(C)CCCCCCCCCC.[O-][Cl+3]([O-])([O-])[O-] | 0.59 ± 0.063
16 | C1CCCCCC1 [cycloheptane] + CCCCCCCCCC[N+](C)(C)CCCCCCCCCC.F[B-](F)(F)F | 1.57 ± 0.16
17 | C1CCCCCC1 [cycloheptane] + CCCCCCCCCC[N+](C)(C)CCCCCCCCCC.[O-][Cl+3]([O-])([O-])[O-] | 1.91 ± 0.2
18 | C1CCCCC1 [cyclohexane] + CCCCCCCCCC[N+](C)(C)CCCCCCCCCC.F[B-](F)(F)F | 1.4 ± 0.14

Row | SMILES | activity coefficient
19 | C1CCCCC1 [cyclohexane] + CCCCCCCCCC[N+](C)(C)CCCCCCCCCC.[O-][Cl+3]([O-])([O-])[O-] | 1.66 ± 0.17
20 | O=C1CCCCC1 [cyclohexanone] + CCCCCCCCCC[N+](C)(C)CCCCCCCCCC.F[B-](F)(F)F | 7.99 ± 0.84
21 | O=C1CCCCC1 [cyclohexanone] + CCCCCCCCCC[N+](C)(C)CCCCCCCCCC.[O-][Cl+3]([O-])([O-])[O-] | 9.68 ± 1
22 | C1CCCC1 [cyclopentane] + CCCCCCCCCC[N+](C)(C)CCCCCCCCCC.F[B-](F)(F)F | 1.13 ± 0.12
23 | C1CCCC1 [cyclopentane] + CCCCCCCCCC[N+](C)(C)CCCCCCCCCC.[O-][Cl+3]([O-])([O-])[O-] | 1.26 ± 0.13
24 | CCOCC [diethyl ether] + CCCCCCCCCC[N+](C)(C)CCCCCCCCCC.F[B-](F)(F)F | 0.769 ± 0.08
25 | CCOCC [diethyl ether] + CCCCCCCCCC[N+](C)(C)CCCCCCCCCC.[O-][Cl+3]([O-])([O-])[O-] | 0.848 ± 0.087
26 | CCO [ethanol] + CCCCCCCCCC[N+](C)(C)CCCCCCCCCC.F[B-](F)(F)F | 0.408 ± 0.047
27 | CCO [ethanol] + CCCCCCCCCC[N+](C)(C)CCCCCCCCCC.[O-][Cl+3]([O-])([O-])[O-] | 0.582 ± 0.062
28 | CCCCCCC [heptane] + CCCCCCCCCC[N+](C)(C)CCCCCCCCCC.F[B-](F)(F)F | 2.62 ± 0.28
29 | CCCCCCC [heptane] + CCCCCCCCCC[N+](C)(C)CCCCCCCCCC.[O-][Cl+3]([O-])([O-])[O-] | 2.85 ± 0.3
30 | C=CCCCC [hex-1-ene] + CCCCCCCCCC[N+](C)(C)CCCCCCCCCC.F[B-](F)(F)F | 1.53 ± 0.16
31 | C=CCCCC [hex-1-ene] + CCCCCCCCCC[N+](C)(C)CCCCCCCCCC.[O-][Cl+3]([O-])([O-])[O-] | 1.8 ± 0.19
32 | CCCCCC [hexane] + CCCCCCCCCC[N+](C)(C)CCCCCCCCCC.F[B-](F)(F)F | 2.3 ± 0.24
33 | CCCCCC [hexane] + CCCCCCCCCC[N+](C)(C)CCCCCCCCCC.[O-][Cl+3]([O-])([O-])[O-] | 2.47 ± 0.26
34 | CO [methanol] + CCCCCCCCCC[N+](C)(C)CCCCCCCCCC.F[B-](F)(F)F | 0.285 ± 0.038
35 | CO [methanol] + CCCCCCCCCC[N+](C)(C)CCCCCCCCCC.[O-][Cl+3]([O-])([O-])[O-] | 0.419 ± 0.048
36 | C=CCCCCCC [oct-1-ene] + CCCCCCCCCC[N+](C)(C)CCCCCCCCCC.F[B-](F)(F)F | 0.749 ± 0.078

same assay, conditions: 353 K; 101.33 kPa; Liquid; Chromatography; x1 = 0

Row | SMILES | activity coefficient
37 | ClCCCl [1,2-dichloroethane] + CCCCCCCCCC[N+](C)(C)CCCCCCCCCC.F[B-](F)(F)F | 0.682 ± 0.071
38 | ClCCCl [1,2-dichloroethane] + CCCCCCCCCC[N+](C)(C)CCCCCCCCCC.[O-][Cl+3]([O-])([O-])[O-] | 0.482 ± 0.053
39 | C=CCCCCC [1-heptene] + CCCCCCCCCC[N+](C)(C)CCCCCCCCCC.F[B-](F)(F)F | 2.23 ± 0.23
40 | C=CCCCCC [1-heptene] + CCCCCCCCCC[N+](C)(C)CCCCCCCCCC.[O-][Cl+3]([O-])([O-])[O-] | 2.15 ± 0.23
41 | C#CCCCCC [1-heptyne] + CCCCCCCCCC[N+](C)(C)CCCCCCCCCC.F[B-](F)(F)F | 1.12 ± 0.12
42 | C#CCCCCC [1-heptyne] + CCCCCCCCCC[N+](C)(C)CCCCCCCCCC.[O-][Cl+3]([O-])([O-])[O-] | 1.18 ± 0.12
43 | C#CCCCC [1-hexyne] + CCCCCCCCCC[N+](C)(C)CCCCCCCCCC.F[B-](F)(F)F | 0.937 ± 0.096
44 | C#CCCCC [1-hexyne] + CCCCCCCCCC[N+](C)(C)CCCCCCCCCC.[O-][Cl+3]([O-])([O-])[O-] | 0.969 ± 0.099
45 | C=CCCC [1-pentene] + CCCCCCCCCC[N+](C)(C)CCCCCCCCCC.F[B-](F)(F)F | 1.26 ± 0.13
46 | C=CCCC [1-pentene] + CCCCCCCCCC[N+](C)(C)CCCCCCCCCC.[O-][Cl+3]([O-])([O-])[O-] | 1.31 ± 0.13
47 | C/C=C(\C)CC [(E)-3-methyl-2-pentene] + CCCCCCCCCC[N+](C)(C)CCCCCCCCCC.F[B-](F)(F)F | 1.43 ± 0.15
48 | C/C=C(\C)CC [(E)-3-methyl-2-pentene] + CCCCCCCCCC[N+](C)(C)CCCCCCCCCC.[O-][Cl+3]([O-])([O-])[O-] | 1.32 ± 0.14
49 | C/C=C/C(C)C [(E)-4-methyl-2-pentene] + CCCCCCCCCC[N+](C)(C)CCCCCCCCCC.F[B-](F)(F)F | 1.57 ± 0.16
50 | C/C=C/C(C)C [(E)-4-methyl-2-pentene] + CCCCCCCCCC[N+](C)(C)CCCCCCCCCC.[O-][Cl+3]([O-])([O-])[O-] | 1.46 ± 0.15
51 | CC(C)=O [acetone] + CCCCCCCCCC[N+](C)(C)CCCCCCCCCC.F[B-](F)(F)F | 0.86 ± 0.088
52 | CC(C)=O [acetone] + CCCCCCCCCC[N+](C)(C)CCCCCCCCCC.[O-][Cl+3]([O-])([O-])[O-] | 0.527 ± 0.057
53 | CC#N [acetonitrile] + CCCCCCCCCC[N+](C)(C)CCCCCCCCCC.F[B-](F)(F)F | 1.24 ± 0.13
54 | CC#N [acetonitrile] + CCCCCCCCCC[N+](C)(C)CCCCCCCCCC.[O-][Cl+3]([O-])([O-])[O-] | 0.46 ± 0.052
55 | c1ccccc1 [benzene] + CCCCCCCCCC[N+](C)(C)CCCCCCCCCC.F[B-](F)(F)F | 0.667 ± 0.07
56 | c1ccccc1 [benzene] + CCCCCCCCCC[N+](C)(C)CCCCCCCCCC.[O-][Cl+3]([O-])([O-])[O-] | 0.527 ± 0.057
57 | CCCC [butane] + CCCCCCCCCC[N+](C)(C)CCCCCCCCCC.F[B-](F)(F)F | 0.939 ± 0.096
58 | CCCC [butane] + CCCCCCCCCC[N+](C)(C)CCCCCCCCCC.[O-][Cl+3]([O-])([O-])[O-] | 1.24 ± 0.13
59 | CCC(C)=O [butanone] + CCCCCCCCCC[N+](C)(C)CCCCCCCCCC.F[B-](F)(F)F | 0.82 ± 0.084

Row | SMILES | activity coefficient
60 | CCC(C)=O [butanone] + CCCCCCCCCC[N+](C)(C)CCCCCCCCCC.[O-][Cl+3]([O-])([O-])[O-] | 0.585 ± 0.063
61 | C1CCCCCC1 [cycloheptane] + CCCCCCCCCC[N+](C)(C)CCCCCCCCCC.F[B-](F)(F)F | 1.98 ± 0.21
62 | C1CCCCCC1 [cycloheptane] + CCCCCCCCCC[N+](C)(C)CCCCCCCCCC.[O-][Cl+3]([O-])([O-])[O-] | 1.78 ± 0.19
63 | C1CCCCC1 [cyclohexane] + CCCCCCCCCC[N+](C)(C)CCCCCCCCCC.F[B-](F)(F)F | 1.73 ± 0.18
64 | C1CCCCC1 [cyclohexane] + CCCCCCCCCC[N+](C)(C)CCCCCCCCCC.[O-][Cl+3]([O-])([O-])[O-] | 1.54 ± 0.16
65 | O=C1CCCCC1 [cyclohexanone] + CCCCCCCCCC[N+](C)(C)CCCCCCCCCC.F[B-](F)(F)F | 9.05 ± 0.95
66 | O=C1CCCCC1 [cyclohexanone] + CCCCCCCCCC[N+](C)(C)CCCCCCCCCC.[O-][Cl+3]([O-])([O-])[O-] | 8.46 ± 0.89
67 | C1CCCC1 [cyclopentane] + CCCCCCCCCC[N+](C)(C)CCCCCCCCCC.F[B-](F)(F)F | 1.28 ± 0.13
68 | C1CCCC1 [cyclopentane] + CCCCCCCCCC[N+](C)(C)CCCCCCCCCC.[O-][Cl+3]([O-])([O-])[O-] | 1.19 ± 0.12
69 | CCOCC [diethyl ether] + CCCCCCCCCC[N+](C)(C)CCCCCCCCCC.F[B-](F)(F)F | 0.79 ± 0.081
70 | CCOCC [diethyl ether] + CCCCCCCCCC[N+](C)(C)CCCCCCCCCC.[O-][Cl+3]([O-])([O-])[O-] | 0.74 ± 0.077
71 | CCO [ethanol] + CCCCCCCCCC[N+](C)(C)CCCCCCCCCC.F[B-](F)(F)F | 0.422 ± 0.048
72 | CCO [ethanol] + CCCCCCCCCC[N+](C)(C)CCCCCCCCCC.[O-][Cl+3]([O-])([O-])[O-] | 0.531 ± 0.058
73 | CCCCCCC [heptane] + CCCCCCCCCC[N+](C)(C)CCCCCCCCCC.F[B-](F)(F)F | 2.48 ± 0.26
74 | CCCCCCC [heptane] + CCCCCCCCCC[N+](C)(C)CCCCCCCCCC.[O-][Cl+3]([O-])([O-])[O-] | 2.67 ± 0.28
75 | C=CCCCC [hex-1-ene] + CCCCCCCCCC[N+](C)(C)CCCCCCCCCC.F[B-](F)(F)F | 1.76 ± 0.18
76 | C=CCCCC [hex-1-ene] + CCCCCCCCCC[N+](C)(C)CCCCCCCCCC.[O-][Cl+3]([O-])([O-])[O-] | 1.73 ± 0.18
77 | CCCCCC [hexane] + CCCCCCCCCC[N+](C)(C)CCCCCCCCCC.F[B-](F)(F)F | 2.2 ± 0.23
78 | CCCCCC [hexane] + CCCCCCCCCC[N+](C)(C)CCCCCCCCCC.[O-][Cl+3]([O-])([O-])[O-] | 2.45 ± 0.26
79 | CO [methanol] + CCCCCCCCCC[N+](C)(C)CCCCCCCCCC.F[B-](F)(F)F | 0.327 ± 0.041
80 | CO [methanol] + CCCCCCCCCC[N+](C)(C)CCCCCCCCCC.[O-][Cl+3]([O-])([O-])[O-] | 0.407 ± 0.047
81 | C=CCCCCCC [oct-1-ene] + CCCCCCCCCC[N+](C)(C)CCCCCCCCCC.F[B-](F)(F)F | 0.951 ± 0.097
